Structures can show the parent of a compound that is named as a salt. Where two headings read alike, the source gives them in different places.
Experiments:
[1] = tested on: iCell cardiomyocytes (human iPSC-derived cardiomyocytes); test: High-content imaging of cytotoxicity and mitochondrial integrity in iPSC-CMs; format: cell-based; conditions: Homo sapiens; for viability at 0.01 µM / activity at 0.01 µM / viability at 0.1 µM / activity at 0.1 µM / viability at 1 µM / activity at 1 µM / viability at 10 µM / activity at 10 µM / viability at 100 µM / activity at 100 µM: Cardiomyocyte, 0.00 µM = 100.00; for viability at 0.1 µM / activity at 0.1 µM: 0.10 µM; for minimal effective concentration: iPSC-CM
Procedure, shortened: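 Cardiomyocytes grown on gelatinized 384-well plates received fresh medium on the experiment day and were then exposed to chemicals at 0.01–100μM. Nuclei and mitochondria were labeled with Hoechst 33342 and MitoTracker™ Orange, then fixed, and imaged on an ImageXpress® Micro Confocal system. Four-parameter logistic concentration–response fits in R, with a one-standard-deviation vehicle cutoff, gave point-of-departure values.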

HUVECs = test: High-content imaging cytotoxicity in HUVECs, 24 h; format: cell-based, human; conditions: Homo sapiens, HUVEC, 24 h, HUVECs; for viability at 0.01 µM / activity at 0.01 µM / viability at 0.1 µM / activity at 0.1 µM / viability at 1 µM / activity at 1 µM / viability at 10 µM / activity at 10 µM / viability at 100 µM / activity at 100 µM: 0.00 µM = 100.00; for viability at 0.1 µM / activity at 0.1 µM: 0.10 µM; for minimal effective concentration: top concentration 100.00 µM
Procedure, shortened: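 Confluent HUVEC monolayers, passages 1–5, received test chemicals for 24 h. Cytotoxicity was scored from triple-stain high-content images, with PODs defined by a one-SD deviation from 0.5% DMSO vehicle controls.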

[2] = 24 hr, read-out: huvec.cyto.24hr
[3] = 24 hr, read-out: huvec.mito.24hr
[4] = 24 hr, read-out: huvec.mitoint.24hr
[5] = 24 hr, read-out: huvec.nma.24hr
[6] = 24 hrs, read-out: huvec.tc.24hrs

**Q.** What does the source list for `O=S(=O)(O)Oc1ccc(-c2cccc(Cl)c2)cc1Cl` [4-yl PCB 11 sulfate]?
**A.** viability at 0.01 µM ([1]; 1.5 h, read-out: cm.cam.90min): 100%; activity at 0.01 µM ([1]; 1.5 h, read-out: cm.mii.90min): 101%; activity at 0.01 µM ([1]; 1.5 h, read-out: cm.mito.90min): 99.5%; viability at 0.01 µM ([1]; 1.5 h, read-out: cm.tc.90min): 100%; viability at 0.1 µM ([1]; 1.5 h, read-out: cm.cam.90min): 99.7%; activity at 0.1 µM ([1]; 1.5 h, read-out: cm.mii.90min): 117%; activity at 0.1 µM ([1]; 1.5 h, read-out: cm.mito.90min): 99.5%; viability at 0.1 µM ([1]; 1.5 h, read-out: cm.tc.90min): 99.6%; viability at 1 µM ([1]; 1.5 h, read-out: cm.cam.90min): 101%; activity at 1 µM ([1]; 1.5 h, read-out: cm.mii.90min): 114%; activity at 1 µM ([1]; 1.5 h, read-out: cm.mito.90min): 101%; viability at 1 µM ([1]; 1.5 h, read-out: cm.tc.90min): 101%; viability at 10 µM ([1]; 1.5 h, read-out: cm.cam.90min): 98.7%; activity at 10 µM ([1]; 1.5 h, read-out: cm.mii.90min): 103%; activity at 10 µM ([1]; 1.5 h, read-out: cm.mito.90min): 98.5%; viability at 10 µM ([1]; 1.5 h, read-out: cm.tc.90min): 98.6%; viability at 100 µM ([1]; 1.5 h, read-out: cm.cam.90min): 99.5%; activity at 100 µM ([1]; 1.5 h, read-out: cm.mii.90min): 108%; activity at 100 µM ([1]; 1.5 h, read-out: cm.mito.90min): 99.1%; viability at 100 µM ([1]; 1.5 h, read-out: cm.tc.90min): 99.5%; viability at 0.01 µM ([1]; 24 h, read-out: cm.cam.24hrs): 88.6%; activity at 0.01 µM ([1]; 24 h, read-out: cm.mii.24hrs): 106%; activity at 0.01 µM ([1]; 24 h, read-out: cm.mito.24hrs): 87.2%; viability at 0.01 µM ([1]; 24 h, read-out: cm.tc.24hrs): 89.5%; viability at 0.1 µM ([1]; 24 h, read-out: cm.cam.24hrs): 101%; activity at 0.1 µM ([1]; 24 h, read-out: cm.mii.24hrs): 114%; activity at 0.1 µM ([1]; 24 h, read-out: cm.mito.24hrs): 102%; viability at 0.1 µM ([1]; 24 h, read-out: cm.tc.24hrs): 102%; viability at 1 µM ([1]; 24 h, read-out: cm.cam.24hrs): 102%; activity at 1 µM ([1]; 24 h, read-out: cm.mii.24hrs): 101%; activity at 1 µM ([1]; 24 h, read-out: cm.mito.24hrs): 101%; viability at 1 µM ([1]; 24 h, read-out: cm.tc.24hrs): 102%; viability at 10 µM ([1]; 24 h, read-out: cm.cam.24hrs): 85.6%; activity at 10 µM ([1]; 24 h, read-out: cm.mii.24hrs): 102%; activity at 10 µM ([1]; 24 h, read-out: cm.mito.24hrs): 82.8%; viability at 10 µM ([1]; 24 h, read-out: cm.tc.24hrs): 86.3%; viability at 100 µM ([1]; 24 h, read-out: cm.cam.24hrs): 10.5%; activity at 100 µM ([1]; 24 h, read-out: cm.mii.24hrs): 48.4%; activity at 100 µM ([1]; 24 h, read-out: cm.mito.24hrs): 5.02%; viability at 100 µM ([1]; 24 h, read-out: cm.tc.24hrs): 10.7%; minimal effective concentration ([1]; 1.5 h, read-out: cm.cam.90min POD): 100 µM; minimal effective concentration ([1]; 1.5 h, read-out: cm.mii.90min POD): 100 µM; minimal effective concentration ([1]; 1.5 h, read-out: cm.mito.90min POD): 100 µM; minimal effective concentration ([1]; 1.5 h, read-out: cm.tc.90min POD): 100 µM; minimal effective concentration ([1]; 24 h, read-out: cm.cam.24hrs POD): 5.91 µM; minimal effective concentration ([1]; 24 h, read-out: cm.mii.24hrs POD): 49.2 µM; minimal effective concentration ([1]; 24 h, read-out: cm.mito.24hrs POD): 7.07 µM; minimal effective concentration ([1]; 24 h, read-out: cm.tc.24hrs POD): 6.38 µM; viability at 0.01 µM (HUVECs; [2]): 97.3%; activity at 0.01 µM (HUVECs; [3]): 95.5%; activity at 0.01 µM (HUVECs; [4]): 95.8%; activity at 0.01 µM (HUVECs; [5]): 97.3%; viability at 0.1 µM (HUVECs; [2]): 86.8%; activity at 0.1 µM (HUVECs; [3]): 85.9%; activity at 0.1 µM (HUVECs; [4]): 118%; activity at 0.1 µM (HUVECs; [5]): 104%; viability at 1 µM (HUVECs; [2]): 97.8%; activity at 1 µM (HUVECs; [3]): 96.6%; activity at 1 µM (HUVECs; [4]): 99.3%; activity at 1 µM (HUVECs; [5]): 97%; viability at 10 µM (HUVECs; [2]): 108%; activity at 10 µM (HUVECs; [3]): 107%; activity at 10 µM (HUVECs; [4]): 93.5%; activity at 10 µM (HUVECs; [5]): 93.9%; viability at 100 µM (HUVECs; [2]): 58.3%; activity at 100 µM (HUVECs; [3]): 58.9%; activity at 100 µM (HUVECs; [4]): 54.2%; activity at 100 µM (HUVECs; [5]): 75.6%; minimal effective concentration (HUVECs; 24 hr, read-out: huvec.cyto.24hr POD): 48.8 µM; minimal effective concentration (HUVECs; 24 hr, read-out: huvec.mito.24hr POD): 45.1 µM; minimal effective concentration (HUVECs; 24 hr, read-out: huvec.mitoint.24hr POD): 10.8 µM; minimal effective concentration (HUVECs; 24 hr, read-out: huvec.nma.24hr POD): 2.98 µM; viability at 0.01 µM (HUVECs; [6]): 97.3%; viability at 0.1 µM (HUVECs; [6]): 86.8%; viability at 1 µM (HUVECs; [6]): 97.8%; viability at 10 µM (HUVECs; [6]): 108%; viability at 100 µM (HUVECs; [6]): 59.1%; minimal effective concentration (HUVECs; 24 hrs, read-out: huvec.tc.24hrs POD): 48.8 µM

Reference: paper PMC7377239, “Cardiovascular Effects of Polychlorinated Biphenyls and Their Major Metabolites” (Environmental Health Perspectives, 2020)
